Data as given in patent US12281149B2, “Modulators of G-protein coupled receptors” (priority 2021, dated 2025).
*1 amine or outer side, *2 acyl side, *3 side chain or, on linkers, in order; H or OH if unused. Where a SMILES comes first, the peptide text is derived from it. Side-chain parts run from the residue outwards. [ ]: non-standard residue; d: D form. The star is where a group is joined. C20 diacid = O=C(O)CCCCCCCCCCCCCCCCCCC(=O)*; γGlu = O=C(O)[C@H](CCC(=O)[*:2])N[*:1]; X39 = CCC(CC)(C(=O)*)c1ccc(Cl)cc1; X3 = CC(C)(C(=O)*)c1ccc(Cl)cc1; X2 = CC(C)(C(=O)*)c1cccc(F)c1; X64 = CC(C)(C(=O)*)c1ccccn1; AEEA = NCCOCCOCC(=O)O; Aib = CC(C)(N)C(=O)O; βAla = NCCC(=O)O

Columns and labels:
Assay type in all cases: cell-based
GLP-1 receptor [1] = biological target: T1, GLP-1 receptor (Homo sapiens, UniProt P43220); test: HitHunter cAMP assay, GLP-1 receptor; details: for EC50: CHO cells stably expressing human GLP-1 receptor, cAMP accumulation, 30 min, read-out: EC50 GLP-1R; for Emax: CHO cells, cAMP, normalized to maximum signal from GLP-1 (high) and DMSO (low), read-out: Emax GLP-1R
GLP-1 receptor [2] = biological target: T1, GLP-1 receptor; test: PathHunter β-arrestin assay, GLP-1 receptor; parameters: host or cells: PathHunter CHO-K1 GLP1R β-Arrestin Cell Line; details: β-arrestin-2 recruitment, PathHunter CHO-K1 GLP1R β-Arrestin Cell Line, 90 min at 37° C.; normalized to GLP-1; read-out: GLP-1R β Arrestin EC50
GIP receptor [3] = biological target: T2, GIP receptor (Homo sapiens, UniProt P48546); test: HitHunter cAMP assay, GIP receptor; details: for EC50: CHO cells stably expressing GIP receptor, cAMP accumulation, 30 min, read-out: EC50 GIP-1R; for Emax: CHO cells, cAMP, normalized to maximum signal from GIP (high) and DMSO (low), read-out: Emax GIP-1R
T2 sequence (P48546 22-466): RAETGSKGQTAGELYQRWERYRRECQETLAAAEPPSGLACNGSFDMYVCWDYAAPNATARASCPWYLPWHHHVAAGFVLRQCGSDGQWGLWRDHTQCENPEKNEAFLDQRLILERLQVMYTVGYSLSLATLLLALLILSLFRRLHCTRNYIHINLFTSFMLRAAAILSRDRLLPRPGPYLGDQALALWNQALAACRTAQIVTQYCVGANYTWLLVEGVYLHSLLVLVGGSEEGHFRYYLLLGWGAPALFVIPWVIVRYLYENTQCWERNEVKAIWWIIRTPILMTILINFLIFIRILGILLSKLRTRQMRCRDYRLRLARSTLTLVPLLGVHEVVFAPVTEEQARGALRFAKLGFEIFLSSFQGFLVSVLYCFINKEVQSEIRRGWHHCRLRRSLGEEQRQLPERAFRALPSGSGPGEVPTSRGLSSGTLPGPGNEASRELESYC

GIP receptor [4] = biological target: T2, GIP receptor; test: PathHunter β-arrestin assay, GIP receptor; parameters: host or cells: PathHunter CHO-K1 GIPR β-Arrestin Cell Line; details: β-arrestin-2 recruitment, PathHunter CHO-K1 GIPR β-Arrestin Cell Line, 90 min at 37° C.; normalized to GIP; read-out: GIPR β Arrestin EC50

T1 sequence (P43220 24-463): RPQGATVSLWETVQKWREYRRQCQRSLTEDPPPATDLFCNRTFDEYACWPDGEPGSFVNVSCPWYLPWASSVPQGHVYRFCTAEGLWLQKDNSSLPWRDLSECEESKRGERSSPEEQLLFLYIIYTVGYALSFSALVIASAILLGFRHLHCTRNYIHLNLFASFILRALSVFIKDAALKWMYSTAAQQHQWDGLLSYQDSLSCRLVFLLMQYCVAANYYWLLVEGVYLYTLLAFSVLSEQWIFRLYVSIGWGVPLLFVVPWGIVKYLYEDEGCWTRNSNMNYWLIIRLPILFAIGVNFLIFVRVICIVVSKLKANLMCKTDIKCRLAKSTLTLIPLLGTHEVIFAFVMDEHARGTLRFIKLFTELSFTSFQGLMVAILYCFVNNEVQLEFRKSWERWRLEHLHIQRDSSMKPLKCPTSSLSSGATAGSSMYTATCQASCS

SMILES | EC50 (GLP-1 receptor [1]) | Emax (GLP-1 receptor [1]) | EC50 (GLP-1 receptor [2]) | EC50 (GIP receptor [3]) | Emax (GIP receptor [3]) | EC50 (GIP receptor [4])
CC[C@H](C)[C@H](NC(=O)[C@H](CC(C)C)NC(=O)[C@H](Cc1c[nH]c2ccccc12)NC(=O)[C@H](CCC(N)=O)NC(=O)[C@@H](NC(=O)[C@H](Cc1ccccc1)NC(=O)[C@H](C)NC(=O)[C@H](CCCCNC(=O)COCCOCCNC(=O)COCCOCCNC(=O)CC[C@H](NC(=O)CCCCCCCCCCCCCCCCCCC(=O)O)C(=O)O)NC(=O)[C@H](CCC(N)=O)NC(=O)[C@H](C)NC(=O)[C@@H](NC(=O)[C@H](CCCCN)NC(=O)[C@H](CC(=O)O)NC(=O)[C@H](CC(C)C)NC(=O)C(C)(C)NC(=O)[C@@H](NC(=O)[C@H](CO)NC(=O)[C@H](Cc1ccc(O)cc1)NC(=O)[C@H](CC(=O)O)NC(=O)[C@H](CO)NC(=O)[C@@H](NC(=O)[C@H](Cc1ccccc1)NC(=O)[C@@H](NC(=O)CNC(=O)[C@H](CCC(=O)O)NC(=O)CCNC(=O)C(C)(C)c1ccccn1)[C@@H](C)O)[C@@H](C)O)[C@@H](C)CC)[C@@H](C)CC)C(C)C)C(=O)N[C@@H](C)C(=O)NCC(=O)NCC(=O)N1CCC[C@H]1C(=O)N[C@@H](CO)C(=O)N[C@@H](CO)C(=O)NCC(=O)N[C@@H](C)C(=O)N1CCC[C@H]1C(=O)N1CCC[C@H]1C(=O)N1CCC[C@H]1C(=O)N[C@@H](CO)C(N)=O [Compound 237] ({X64-βAla}-EGTFTSDYSI[Aib]LDKIAQK([AEEA-AEEA-γGlu-C20 diacid])AFVQWLIAGGPSSGAPPPS-NH2) | < 0.1 nM | 93% | > 1000 nM | 1 to 10 nM | 91% | < 1000 nM
CC[C@H](C)[C@H](NC(=O)[C@H](CC(C)C)NC(=O)[C@H](Cc1c[nH]c2ccccc12)NC(=O)[C@H](CCC(N)=O)NC(=O)[C@@H](NC(=O)[C@H](Cc1ccccc1)NC(=O)[C@H](C)NC(=O)[C@H](CCCCNC(=O)COCCOCCNC(=O)COCCOCCNC(=O)CC[C@H](NC(=O)CCCCCCCCCCCCCCCCCCC(=O)O)C(=O)O)NC(=O)[C@H](CCC(N)=O)NC(=O)[C@H](C)NC(=O)[C@@H](NC(=O)[C@H](CCCCN)NC(=O)[C@H](CC(=O)O)NC(=O)[C@H](CC(C)C)NC(=O)C(C)(C)NC(=O)[C@@H](NC(=O)[C@H](CO)NC(=O)[C@H](Cc1ccc(O)cc1)NC(=O)[C@H](CC(=O)O)NC(=O)[C@H](CO)NC(=O)[C@@H](NC(=O)[C@H](Cc1ccccc1)NC(=O)[C@@H](NC(=O)CNC(=O)[C@H](CCC(=O)O)NC(=O)CCNC(=O)C(CC)(CC)c1ccc(Cl)cc1)[C@@H](C)O)[C@@H](C)O)[C@@H](C)CC)[C@@H](C)CC)C(C)C)C(=O)N[C@@H](C)C(=O)NCC(=O)NCC(=O)N1CCC[C@H]1C(=O)N[C@@H](CO)C(=O)N[C@@H](CO)C(=O)NCC(=O)N[C@@H](C)C(=O)N1CCC[C@H]1C(=O)N1CCC[C@H]1C(=O)N1CCC[C@H]1C(=O)N[C@@H](CO)C(N)=O [Compound 176] ({X39-βAla}-EGTFTSDYSI[Aib]LDKIAQK([AEEA-AEEA-γGlu-C20 diacid])AFVQWLIAGGPSSGAPPPS-NH2) | 1 to 10 nM | 110% | > 1000 nM | 1 to 10 nM | 110% | < 1000 nM
CC[C@H](C)[C@H](NC(=O)[C@H](CC(C)C)NC(=O)[C@H](Cc1c[nH]c2ccccc12)NC(=O)[C@H](CCC(N)=O)NC(=O)[C@@H](NC(=O)[C@H](Cc1ccccc1)NC(=O)[C@H](C)NC(=O)[C@H](CCCCNC(=O)COCCOCCNC(=O)COCCOCCNC(=O)CC[C@H](NC(=O)CCCCCCCCCCCCCCCCCCC(=O)O)C(=O)O)NC(=O)[C@H](CCC(N)=O)NC(=O)[C@H](C)NC(=O)[C@@H](NC(=O)[C@H](CCCCN)NC(=O)[C@H](CC(=O)O)NC(=O)[C@H](CC(C)C)NC(=O)C(C)(C)NC(=O)[C@@H](NC(=O)[C@H](CO)NC(=O)[C@H](Cc1ccc(O)cc1)NC(=O)[C@H](CC(=O)O)NC(=O)[C@H](CO)NC(=O)[C@@H](NC(=O)[C@H](Cc1ccccc1)NC(=O)[C@@H](NC(=O)CNC(=O)[C@H](CCC(=O)O)NC(=O)CCNC(=O)C(C)(C)c1cccc(F)c1)[C@@H](C)O)[C@@H](C)O)[C@@H](C)CC)[C@@H](C)CC)C(C)C)C(=O)N[C@@H](C)C(=O)NCC(=O)NCC(=O)N1CCC[C@H]1C(=O)N[C@@H](CO)C(=O)N[C@@H](CO)C(=O)NCC(=O)N[C@@H](C)C(=O)N1CCC[C@H]1C(=O)N1CCC[C@H]1C(=O)N1CCC[C@H]1C(=O)N[C@@H](CO)C(N)=O [Compound 240] ({X2-βAla}-EGTFTSDYSI[Aib]LDKIAQK([AEEA-AEEA-γGlu-C20 diacid])AFVQWLIAGGPSSGAPPPS-NH2) | < 0.1 nM | 93% | < 1000 nM | 1 to 10 nM | 95% | < 1000 nM
CC[C@H](C)[C@H](NC(=O)[C@H](CC(C)C)NC(=O)[C@H](Cc1c[nH]c2ccccc12)NC(=O)[C@H](CCC(N)=O)NC(=O)[C@@H](NC(=O)[C@H](Cc1ccccc1)NC(=O)[C@H](C)NC(=O)[C@H](CCCCNC(=O)COCCOCCNC(=O)COCCOCCNC(=O)CC[C@H](NC(=O)CCCCCCCCCCCCCCCCCCC(=O)O)C(=O)O)NC(=O)[C@H](CCC(N)=O)NC(=O)[C@H](C)NC(=O)[C@@H](NC(=O)[C@H](CCCCN)NC(=O)[C@H](CC(=O)O)NC(=O)[C@H](CC(C)C)NC(=O)C(C)(C)NC(=O)[C@@H](NC(=O)[C@H](CO)NC(=O)[C@H](Cc1ccc(O)cc1)NC(=O)[C@H](CC(=O)O)NC(=O)[C@H](CO)NC(=O)[C@@H](NC(=O)[C@H](Cc1ccccc1)NC(=O)[C@@H](NC(=O)CNC(=O)[C@H](CCC(=O)O)NC(=O)CCNC(=O)C(C)(C)c1ccc(Cl)cc1)[C@@H](C)O)[C@@H](C)O)[C@@H](C)CC)[C@@H](C)CC)C(C)C)C(=O)N[C@@H](C)C(=O)NCC(=O)NCC(=O)N1CCC[C@H]1C(=O)N[C@@H](CO)C(=O)N[C@@H](CO)C(=O)NCC(=O)N[C@@H](C)C(=O)N1CCC[C@H]1C(=O)N1CCC[C@H]1C(=O)N1CCC[C@H]1C(=O)N[C@@H](CO)C(N)=O [Compound 185] ({X3-βAla}-EGTFTSDYSI[Aib]LDKIAQK([AEEA-AEEA-γGlu-C20 diacid])AFVQWLIAGGPSSGAPPPS-NH2) | 0.1 to 1 nM | 101% | < 1000 nM | 10 to 100 nM | 95% | > 1000 nM
CC[C@H](C)[C@H](NC(=O)[C@H](CO)NC(=O)[C@H](Cc1ccc(O)cc1)NC(=O)[C@H](CC(=O)O)NC(=O)[C@H](CO)NC(=O)[C@@H](NC(=O)[C@H](Cc1ccccc1)NC(=O)[C@@H](NC(=O)CNC(=O)[C@H](CCC(=O)O)NC(=O)CCNC(=O)C1(c2ccccc2)CCOCC1)[C@@H](C)O)[C@@H](C)O)C(=O)N[C@@H](Cc1ccc(O)cc1)C(=O)N[C@@H](CC(C)C)C(=O)N[C@@H](CC(=O)O)C(=O)N[C@@H](CCCCN)C(=O)N[C@@H](CCC(N)=O)C(=O)N[C@@H](C)C(=O)N[C@@H](C)C(=O)NC(C)(C)C(=O)N[C@@H](CCC(=O)O)C(=O)N[C@@H](Cc1ccccc1)C(=O)N[C@H](C(=O)N[C@@H](CC(N)=O)C(=O)N[C@@H](Cc1c[nH]c2ccccc12)C(=O)N[C@@H](CC(C)C)C(=O)N[C@@H](CC(C)C)C(=O)N[C@@H](C)C(=O)NCC(=O)NCC(=O)N1CCC[C@H]1C(=O)N[C@@H](CO)C(=O)N[C@@H](CO)C(=O)NCC(=O)N[C@@H](C)C(=O)N1CCC[C@H]1C(=O)N1CCC[C@H]1C(=O)N1CCC[C@H]1C(=O)N[C@@H](CO)C(=O)N[C@@H](CCCCNC(=O)COCCOCCNC(=O)COCCOCCNC(=O)CC[C@H](NC(=O)CCCCCCCCCCCCCCCCCCC(=O)O)C(=O)O)C(N)=O)C(C)C [Compound 154] | 1 to 10 nM | 99% | > 1000 nM | 10 to 100 nM | 106% | > 1000 nM
